Where a name gives a salt, the structure may show the parent alone. Read-outs that look alike come from different tables or passages of the source.
Experiments:
[1] = test system: E. coli (Swine); test: Microbiological assay, MIC and MBC, E. coli (Swine); type: cell-based; conditions: combinations 1:1 by weight
[2] = test system: Pseudomonas strains of mastitic origin; conditions: cited from earlier work
[3] = test system: Salmonella typhi-murium; test: Microbiological assay, MIC and MBC, Salmonella typhi-murium; type: cell-based; conditions: combinations 1:1 by weight
[4] = in vivo; cited from earlier work
[5] = test system: E. coli (Calf); test: Microbiological assay, MIC and MBC, E. coli (Calf); conditions: combinations 1:1 by weight
[6] = test system: Pasteurella multocida; test: Microbiological assay, MIC and MBC, Pasteurella multocida; conditions: combinations 1:1 by weight
[7] = test system: Staphylococcus aureus; test: Microbiological assay, minimal inhibiting (MIC) and minimal bactericide (MBC) concentrations, Staphylococcus aureus; conditions: combinations 1:1 by weight
[8] = test system: some Gram positive bacteria, Mycoplasma and the most important Treponema; conditions: cited from earlier work
[9] = test system: Treponema hyodysenteriae; conditions: orally applied; swine dysentery; British patent specification No. 2,072,012; cited from earlier work
[10] = test system: Mycoplasma hyopneumoniae; conditions: orally applied; enzootic pneumonia; Taylor, IPVS Congress 1982; cited from earlier work
[11] = Escherichia coli, read-out: MBC
[12] = Escherichia coli, read-out: MIC

Question: What does the source list for `CN[C@@H]1[C@@H](O[C@H]2O[C@H](CO)[C@@H](N)[C@H](O)[C@H]2O)OC2C[C@@H](N)[C@@H](O[C@H]3[C@H](O)[C@@H](O)[C@H](N)C[C@@H]3N)OC2[C@@H]1O` (stereo partly shown) [Apramycin]?
Answer: MBC [1, 11]: 25 µg/mL; MIC [1, 12]: 25 µg/mL; effect against Pseudomonas strains of mastitic origin [2]: particularly strong effect

Question: What does the source list for `NC[C@H]1O[C@H](O[C@H]2[C@H](O)[C@@H](O[C@H]3O[C@H](CO)[C@@H](O)[C@H](N)[C@H]3O)[C@H](N)C[C@@H]2N)[C@H](O)[C@@H](O)[C@@H]1O` [Kanamycin]?
Answer: MBC [1, 11]: 25 µg/mL; MIC [1, 12]: 10 µg/mL; MBC ([3]; Salmonella enterica, read-out: MBC): 50 µg/mL; MIC ([3]; Salmonella enterica, read-out: MIC): 25 µg/mL

Question: With `NC[C@@H]1O[C@H](O[C@H]2[C@@H](O)[C@H](O[C@@H]3[C@@H](O)[C@H](N)C[C@H](N)[C@H]3O[C@H]3O[C@H](CN)[C@@H](O)[C@H](O)[C@H]3N)O[C@@H]2CO)[C@H](N)[C@@H](O)[C@@H]1O` [Neomycin] as the compound, how does the MBC [1] read?
Answer: 10 µg/mL

Question: What about the MIC [1] of the same compound?
Answer: 5 µg/mL

Question: And the MBC [3]?
Answer: 25 µg/mL

Question: What about the MIC [3] of the same compound?
Answer: 10 µg/mL

Question: What about the nephrotoxic properties [4] of the same compound?
Answer: may cause azotaemia and oliguria

Question: And the MBC [5]?
Answer: > 200 µg/mL

Question: What about the MIC [5] of the same compound?
Answer: > 200 µg/mL

Question: And the MBC [6]?
Answer: 5 µg/mL

Question: And the MIC [6]?
Answer: 1 µg/mL

Question: What about the MBC [7] of the same compound?
Answer: 25 µg/mL

Question: And the MIC [7]?
Answer: 10 µg/mL

Question: Which results are given for `[H]/N=C(/N)N[C@H]1[C@H](O)[C@@H](O)[C@H](O[C@@H]2O[C@@H](C)[C@](O)(C=O)[C@H]2O[C@@H]2O[C@@H](CO)[C@H](O)[C@@H](O)[C@@H]2NC)[C@@H](N/C(N)=N\[H])[C@@H]1O` [Streptomycin]?
Answer: MBC [1, 11]: > 200 µg/mL; MIC [1, 12]: 100 µg/mL

Question: Which MBC [1, 11] does the source give for `C=C[C@]1(C)C[C@@H](OC(=O)CSCCN(CC)CC)[C@]2(C)[C@H](C)CC[C@]3(CCC(=O)[C@H]32)[C@@H](C)[C@@H]1O` [Tiamulin, 14-desoxy-14-[(2-diethyl-amino-ethyl)-mercapto-acetoxy]-mutilin hydrogen fumarate] here?
Answer: 100 µg/mL

Question: What about the MIC [1, 12] of the same compound?
Answer: 50 µg/mL

Question: And the “effectiveness against some Gram positive bacteria, Mycoplasma and Treponema” value [8]?
Answer: effective against some Gram positive bacteria, Mycoplasma and the most important Treponema

Question: What about the “effectiveness against Treponema hyodysenteriae” value [9] of the same compound?
Answer: extremely effective

Question: What about the “effectiveness against Mycoplasma hyopneumoniae” value [10] of the same compound?
Answer: extremely effective

Question: Which MBC [1, 11] does the source give for `NC[C@H]1O[C@H](O[C@H]2[C@H](O)[C@@H](O[C@H]3O[C@H](CO)[C@@H](O)[C@H](N)[C@H]3O)[C@H](N)C[C@@H]2N)[C@H](N)C[C@@H]1O` [Tobramycin] here?
Answer: 5 µg/mL

Question: And the MIC [1, 12]?
Answer: 1 µg/mL

Question: For Gentamycin, which MBC [1] is on record?
Answer: 5 µg/mL

Question: And the MIC [1]?
Answer: 5 µg/mL

Question: What about the MBC [3] of the same compound?
Answer: 5 µg/mL

Question: And the MIC [3]?
Answer: 5 µg/mL

Question: What about the MBC [5] of the same compound?
Answer: 5 µg/mL

Question: What about the MIC [5] of the same compound?
Answer: 5 µg/mL

Question: What about the MBC [6] of the same compound?
Answer: 1 µg/mL

Question: What about the MIC [6] of the same compound?
Answer: < 0.5 µg/mL

Question: And the MBC [7]?
Answer: 5 µg/mL

Question: And the MIC [7]?
Answer: 0.5 µg/mL
